US7709482B2, “Polycyclic heteroaryl substituted triazoles useful as Axl inhibitors” (Rigel Pharmaceuticals, Inc., priority 2006, dated 2010)

Target: T1, Axl (Homo sapiens, UniProt P30530)
T1 construct: endogenous in cells; host or cells: HeLa cells
T1 sequence (P30530 26-894): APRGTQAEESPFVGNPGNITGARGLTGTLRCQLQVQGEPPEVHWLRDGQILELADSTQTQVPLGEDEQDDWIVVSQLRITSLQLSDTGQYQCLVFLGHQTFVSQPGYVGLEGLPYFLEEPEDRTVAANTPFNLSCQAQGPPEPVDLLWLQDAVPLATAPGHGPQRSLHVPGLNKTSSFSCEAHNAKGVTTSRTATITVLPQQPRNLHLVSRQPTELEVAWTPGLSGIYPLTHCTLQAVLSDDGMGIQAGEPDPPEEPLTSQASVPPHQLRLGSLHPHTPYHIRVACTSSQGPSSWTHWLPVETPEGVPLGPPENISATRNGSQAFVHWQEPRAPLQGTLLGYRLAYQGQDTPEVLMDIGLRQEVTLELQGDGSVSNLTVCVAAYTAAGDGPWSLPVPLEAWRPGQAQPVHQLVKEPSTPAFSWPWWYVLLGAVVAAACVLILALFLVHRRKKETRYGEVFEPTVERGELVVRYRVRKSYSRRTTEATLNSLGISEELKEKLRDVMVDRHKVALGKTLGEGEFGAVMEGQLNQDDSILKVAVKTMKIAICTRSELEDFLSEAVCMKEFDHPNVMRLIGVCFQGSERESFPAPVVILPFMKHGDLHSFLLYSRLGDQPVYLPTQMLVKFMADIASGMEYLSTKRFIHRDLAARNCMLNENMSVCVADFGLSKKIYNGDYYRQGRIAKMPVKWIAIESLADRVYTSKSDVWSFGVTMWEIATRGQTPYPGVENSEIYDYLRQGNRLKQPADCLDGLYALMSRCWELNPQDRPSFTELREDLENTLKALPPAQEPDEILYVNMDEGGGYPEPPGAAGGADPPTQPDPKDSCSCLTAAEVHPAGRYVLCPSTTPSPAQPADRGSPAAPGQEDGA
Test: Phospho-Akt In-Cell Western Assay (inhibition of Axl activity after Axl-antibody cross-linking)
Format: cell-based
Settings: Hela cells, phospho-Akt chemiluminescence normalized to relative cell number; compounds of formula (Ia), Table 1; read-out: IC50
Procedure: The compounds of the invention were tested in the following assay for their ability to inhibit Axl activity.
Phospho-Akt In-Cell Western Assay
• Cell culture plate: 96 well assay plate (Corning 3610), white, clear bottom, tissue-culture treated. • Cells: Hela cells. • Starvation medium: For Axl stimulation: 0.5% FCS (fetal calf serum) in DMEM, plus Axl/Fc (extracellular domain of AXL fused to immunoglobulin Fc region) (R&D, 154-AL) 500 ng/mL. • For EGF (epidermal growth factor) stimulation: 0.5% FCS in DMEM (Dulbecco's modified Eagles medium). • Poly-L-Lysine 0.01% solution (the working solution): […], dilute In PBS (phosphate buffered saline). • Axl antibody cross-linking: • 1st: Mouse anti-Axl (R&D, MAB154). • 2nd: Biotin-SP-conjugated AffiniPure goat anti-mouse IgG (H+ L) (Jackson ImmunoResearch #115-065-003). • Fixing buffer: 4% formaldehyde in PBS. • Wash buffer: 0.1% TritonX-100 in PBS. • Quenching buffer: 3% H2O2, 0.1% Azide in wash buffer, Azide and hydrogen peroxide (H2O2) are added fresh. • Blocking buffer: 5% BSA in TBST (tris buffered saline plus 0.1% Tween 20). • Primary antibody: Rabbit anti-human Phospho-Akt antibody (Cell Signaling 9271): 1×250 diluted in blocking buffer. • Secondary antibody: HRP (horse radish peroxidase)-conjugated Goat anti-Rabbit secondary, stock solution: Jackson ImmunoResearch (Goat anti-Rabbit HRP, #111-035-144) 1:1 diluted in glycerol, store at −20° C. The working solution: 1×2000 dilution of stock in blocking buffer. • Chemiluminescent working solution (Pierce, 37030): SuperSignal ELISA (enzyme linked immunosorbant assay) Pico Chemiluminescent substrate. • Crystal Violet solution: Stock: 2.5% Crystal violet in methanol, filtered and kept at ambient temperature. The working solution: dilute the stock 1:20 with PBS immediately before use. • 10% SDS: working solution: 5% SDS (sodium dodecylsulfate), diluted in PBS Methods: Day 1:
A 96 well TC (tissue culture treated) plate was coated with 10 μg/mL poly-L-Lysine at 37° C. for 30 min, washed twice with PBS, and air-dried for 5 minutes before cells were added. Hela cells were seeded at 10,000 cells/well and the cells were starved in 100 μL starvation medium containing Axl/Fc for 24 hrs.
The cells were pre-treated with test compounds by adding 100 μL of 2× test compound to the starvation medium on the cells. The cells were incubated at 37° C. for 1 hr before stimulation.
The resulting mix was warmed to 37° C. 50 μL of 5×Axl 1st/2nd of antibody cluster was added to the cells and the cells were incubated at 37° C. for 5 min.
After 5 minutes stimulation, the plate was flicked to remove medium and the plate was tapped onto paper towels. Formaldehyde (4.0% in PBS, 100 μL) was added to fix the cells and the cells were incubated at ambient temperature for 20 min without shaking.
The cells were washed with a plate washer buffer to remove the formaldehyde solution. The plate was flicked to removed excess wash buffer and tapped onto paper towels. Quenching buffer (100 μL) was added to each well and the cells were incubated at ambient temperature for 20 minutes without shaking.
The cells were washed with a plate washer buffer to remove the quenching buffer. Blocking buffer (100 μL) was added and the cells were incubated at ambient temperature for at least an hour with gentle shaking.
The cells were washed with a plate washer buffer and diluted primary antibody (50 μL) was added to each well (blocking buffer was added to the negative control wells instead). The plates were incubated overnight at 4° C. with gentle shaking.
The wash buffer was removed, diluted secondary antibody (100 μL) was added, and the cells were incubated at ambient temperature for 1 hour with gentle shaking. During the incubation, the chemiluminescent reagent was brought to ambient temperature.
The secondary antibody was removed by washing the cells 1× with wash buffer, 1× with PBS by plate washer.

IC50 | SMILES
< 1000 nM | CCN(CC)C1CCN(c2ccc(Nc3nc(N)n(-c4ncnc5c4CCCc4ccccc4-5)n3)cc2F)CC1 [Compound 39, 1-(6,7-dihydro-5H-benzo[6,7]cyclohepta[1,2-d]pyrimidin-4-yl)-N^3-(3-fluoro-4-(4-(diethylamino)piperidin-1-yl)phenyl)-1H-1,2,4-triazole-3,5-diamine]
1000 to 10000 nM | CN1CCN(c2ccc(Nc3nc(N)n(-c4ncc5c(n4)-c4ccccc4CCC5)n3)cc2)CC1 [Compound 40, 1-(6,7-dihydro-5H-benzo[6,7]cyclohepta[1,2-d]pyrimidin-2-yl)-N^3-(4-(N-methylpiperazin-1-yl)phenyl)-1H-1,2,4-triazole-3,5-diamine]
1000 to 10000 nM | CN1CCN(c2ccc(Nc3nc(N)n(-c4cc5c(nn4)-c4ccccc4N(C)CC5)n3)cc2)CC1 [Compound 41, 1-(7-methyl-6,7-dihydro-5H-benzo[2,3]azepino[4,5-c]pyridazin-3-yl)-N^3-(4-(N-methylpiperazin-1-yl)phenyl)-1H-1,2,4-triazole-3,5-diamine]
< 1000 nM | CN1CCc2cc(-n3nc(Nc4ccc(OCCN5CCCC5)c(F)c4)nc3N)nnc2-c2ccccc21 [Compound 42, 1-(7-methyl-6,7-dihydro-5H-benzo[2,3]azepino[4,5-c]pyridazin-3-yl)-N^3-(3-fluoro-4-(2-(pyrrolidin-1-yl)ethoxy)phenyl)-1H-1,2,4-triazole-3,5-diamine]
1000 to 10000 nM | CN1CCc2cc(-n3nc(Nc4ccc(N5CCN(C6CCCCC6)CC5)c(F)c4)nc3N)nnc2-c2ccccc21 [Compound 43, 1-(7-methyl-6,7-dihydro-5H-benzo[2,3]azepino[4,5-c]pyridazin-3-yl)-N^3-(3-fluoro-4-(4-cyclohexylpiperazinyl)phenyl)-1H-1,2,4-triazole-3,5-diamine]
< 1000 nM | Nc1nc(Nc2ccc(OCCN3CCCC3)c(F)c2)nn1-c1ncc2c(n1)-c1ccccc1CCC2 [Compound 44, 1-(6,7-dihydro-5H-benzo[6,7]cyclohepta[1,2-d]pyrimidin-2-yl)-N^3-(3-fluoro-4-(2-(pyrrolidin-1-yl)ethoxy)phenyl)-1H-1,2,4-triazole-3,5-diamine]
< 1000 nM | Nc1nc(Nc2ccc(N3CCN(C4CCCCC4)CC3)c(F)c2)nn1-c1ncc2c(n1)-c1ccccc1CCC2 [Compound 45, 1-(6,7-dihydro-5H-benzo[6,7]cyclohepta[1,2-d]pyrimidin-2-yl)-N^3-(3-fluoro-4-(4-cyclohexylpiperazinyl)phenyl)-1H-1,2,4-triazole-3,5-diamine]
< 1000 nM | Nc1nc(Nc2ccc(N3CCN([C@H]4CC5CCC4C5)CC3)cc2)nn1-c1ncc2c(n1)-c1ccccc1CCC2 (stereo partly drawn) [Compound 46, 1-(6,7-dihydro-5H-benzo[6,7]cyclohepta[1,2-d]pyrimidin-2-yl)-N^3-(4-(4-(2S)-bicyclo[2.2.1]heptan-2-yl)-piperazinylphenyl)-1H-1,2,4-triazole-3,5-diamine]
1000 to 10000 nM | Nc1nc(Nc2ccc(OCCN3CCCC3)c(Cl)c2)nn1-c1cc2c(nn1)-c1ccccc1CCC2 [Compound 47, 1-(6,7-dihydro-5H-benzo[6,7]cyclohepta[1,2-c]pyridazin-3-yl)-N^3-(3-chloro-4-(2-(pyrrolidin-1-yl)ethoxy)phenyl)-1H-1,2,4-triazole-3,5-diamine]
1000 to 10000 nM | Nc1nc(Nc2ccc(OCCN3CCCC3)c(F)c2)nn1-c1cc2c(nn1)-c1ccccc1CCC2 [Compound 48, 1-(6,7-dihydro-5H-benzo[6,7]cyclohepta[1,2-c]pyridazin-3-yl)-N^3-(3-fluoro-4-(2-(pyrrolidin-1-yl)ethoxy)phenyl)-1H-1,2,4-triazole-3,5-diamine]
1000 to 10000 nM | Nc1nc(Nc2ccc(OCCN3CCCC3)cc2)nn1C1=Nc2ccccc2Sc2ccccc21 [Compound 49, 1-((Z)-dibenzo[b,f][1,4]thiazepin-11-yl)-N^3-(4-(2-(pyrrolidin-1-yl)ethoxy)phenyl)-1H-1,2,4-triazole-3,5-diamine]
1000 to 10000 nM | CN1CCN(c2ccc(Nc3nc(N)n(C4=Nc5ccccc5Sc5ccccc54)n3)cc2)CC1 [Compound 50, 1-((Z)-dibenzo[b,f][1,4]thiazepin-11-yl)-N^3-(4-(N-methylpiperazin-1-yl)phenyl)-1H-1,2,4-triazole-3,5-diamine]
1000 to 10000 nM | CCN(CC)C1CCN(c2ccc(Nc3nc(N)n(C4=Nc5ccccc5Sc5ccccc54)n3)cc2F)CC1 [Compound 51, 1-((Z)-dibenzo[b,f][1,4]thiazepin-11-yl)-N^3-(3-fluoro-4-(4-diethylaminopiperidin-1-yl)phenyl)-1H-1,2,4-triazole-3,5-diamine]
< 1000 nM | COc1ccc2c(c1)CCCc1cc(-n3nc(Nc4ccc(N5CCC(N6CCCC6)CC5)c(F)c4)nc3N)nnc1-2 [Compound 52, 1-(6,7-dihydro-5H-9-methoxybenzo[6,7]cyclo-hepta[1,2-c]pyridazin-3-yl)-N^3-(3-fluoro-4-(4-(pyrrolidin-1-yl)piperidin-1-yl)phenyl)-1H-1,2,4-triazole-3,5-diamine]
< 1000 nM | Nc1nc(Nc2ccc(N3CCC(N4CCCC4)CC3)c(F)c2)nn1-c1cc2c(nn1)-c1cc(F)ccc1CCC2 [Compound 53, 1-(6,7-dihydro-5H-10-fluorobenzo[6,7]cyclo-hepta[1,2-c]pyridazin-3-yl)-N^3-(3-fluoro-4-(4-(pyrrolidin-1-yl)piperidin-1-yl)phenyl)-1H-1,2,4-triazole-3,5-diamine]
< 1000 nM | Nc1nc(Nc2ccc(OCCN3CCCC3)c(F)c2)nn1-c1cc2c(nn1)-c1cc(F)ccc1CCC2 [Compound 54, 1-(6,7-dihydro-5H-10-fluorobenzo[6,7]cyclo-hepta[1,2-c]pyridazin-3-yl)-N^3-(3-fluoro-4-(2-(pyrrolidin-1-yl)ethoxy)phenyl)-1H-1,2,4-triazole-3,5-diamine]
10000 to 20000 nM | Nc1nc(Nc2ccc(N3CCN(C4CCCCC4)CC3)c(F)c2)nn1-c1cc2c(nn1)-c1cc(F)ccc1CCC2 [Compound 55, 1-(6,7-dihydro-5H-10-fluorobenzo[6,7]cyclo-hepta[1,2-c]pyridazin-3-yl)-N^3-(3-fluoro-4-(4-(cyclohexyl)piperazin-1-yl)phenyl)-1H-1,2,4-triazole-3,5-diamine]
